Molecules are shown by their SMILES.

Assay type in all cases: in vitro ADME
Data set [1] can be described thus: Stability in rat liver microsomes. As to conditions: 0.5 mg/mL pooled male microsomes, read-out: Intrinsic Clearance (Cl int) Liver Microsomes. As for the experimental part: Memantine (1 μM) was incubated in 0.5 mg/mL of pooled male rat, mouse, or human liver microsomes (obtained commercially), in 0.1 M phosphate buffer at 37 °C. After pre-warming the mixture for 5 min, reactions were initiated by the addition of NADPH (1 mM). Aliquots (80 μL) were taken at 0, 5, 10, 20 and 40 min, and the reaction immediately terminated by adding into 80 μL of acetonitrile containing an analytical internal standard (IS). Samples were centrifuged and the supernatant fractions analyzed by LC-MS/MS with multiple reaction monitoring (MRM). All incubations were performed in duplicate. Testosterone was used as the positive control. The MRM area response ratio of the analyte over IS for Time=0(control) was set to 100%, the relative decrease in MRM area ratio intensity over time against that of the control (percent parent decrease) was used to determine the half-life (t1/2) of memantine in the incubation. Half-life values were calculated from the relationship:
t1/2 (min) = -0.693/λ, where λ is the slope of the Ln concentration vs time curve. The intrinsic clearance (Clint) was calculated as:
Clint = (0.693 x incubation volume (μL))/(t½ (min) x mg of microsomal protein)

A further data set relates to Caco2 cells. Put plainly: Bidirectional Caco permeability. Conditions: Caco2 cells. As for the experimental part: (§1) CacoReady ^TM 24-transwell plates with plated Caco cells were purchased from Advancell, and were prepared for the experiments following manufacturer’s instructions. Memantine and reference compounds (propranolol, digoxin and vinblatine) were added to either the apical or basolateral chambers of the transwell plate assembly at a concentration of 10 μM prepared in Hanks’ Balanced Salt Solution containing 25 mM HEPES (pH7.4). Lucifer Yellow (LY) was added to the donor buffer in all wells to assess viability of the cell layer. Since LY cannot freely permeate lipophilic barriers, results were rejected when a high degree of LY transport (>100nm/s) was observed. After a 1 h incubation at 37°C, aliquots were taken from both chambers and added to acetonitrile containing an analytical internal standard in a 96-well plate. Concentrations of compound in the samples were measured by (HPLC-MS/MS).
(§2) Papp values were calculated from the relationship:
(§3) Papp = ([compound]acceptor final × Va )/ (A × time ([compound]donor initial )
(§4) The efflux ratio (Er) was calculated as
(§5) Er = Papp (B to A) / Papp (A to B)
Background: Caco-2 monolayers are a common model of the intestinal barrier.

The nature of data set [2]: Bidirectional Caco permeability. Conditions: human, Caco-2, pH 7.4. The protocol:
as §1, §2, §3, §4, §5

As to `CC12CC3CC(C)(C1)CC(N)(C3)C2` [memantine], in data set [1], the microsomal CLint at 1 μM is 50.4 µL/min/mg. Besides, the “MDR1 (Pgp) substrate” value with Caco2 cells is on record as “not a MDR1 (Pgp) substrate”. Besides, the Papp A→B at 1 h, 10 μM in data set [2] (10 μM, pH7.4, 1 h, read-out: Caco Permeability AtoB) is 43.4 ×10⁻⁶ cm/s. Besides, the Papp B→A at 1 h, 10 μM in data set [2] (10 μM, pH7.4, 1 h, read-out: Caco Permeability BtoA) was 47 ×10⁻⁶ cm/s. The efflux ratio at 1 h, 10 μM in data set [2] (Papp (B to A) / Papp (A to B), read-out: ER (efflux ratio)) is roughly 1.
